“Also recorded” adds a separate entry of the source.
Columns and labels:
TTBK1, TTBK2 = assay: Ex vivo KiNativ ATP/ADP probe competition in mouse cortical brain lysates; type: binding; conditions: DIKPSNFAMGR; Lys2; ADP probe
CK1d, CK1e = assay: as above; type: binding; conditions: DVKPDNFLMGLGKK; Lys2; ATP probe
MLK2 = target: T1, MLK2 (Mus musculus, UniProt Q66L42); assay: as above; type: binding; conditions: DLKSINILILEAIENHNLADTVLK; Lys2; ATP probe
T1 construct: from tissue; host or cells: mouse cortical brain lysate

PIP4K2C = target: T2, PIP4K2C (Mus musculus, UniProt Q91XU3); assay: as above; type: binding; conditions: labeling site ATP
T2 construct: from tissue; host or cells: mouse cortical brain lysate
T2 sequence (Q91XU3 1-421): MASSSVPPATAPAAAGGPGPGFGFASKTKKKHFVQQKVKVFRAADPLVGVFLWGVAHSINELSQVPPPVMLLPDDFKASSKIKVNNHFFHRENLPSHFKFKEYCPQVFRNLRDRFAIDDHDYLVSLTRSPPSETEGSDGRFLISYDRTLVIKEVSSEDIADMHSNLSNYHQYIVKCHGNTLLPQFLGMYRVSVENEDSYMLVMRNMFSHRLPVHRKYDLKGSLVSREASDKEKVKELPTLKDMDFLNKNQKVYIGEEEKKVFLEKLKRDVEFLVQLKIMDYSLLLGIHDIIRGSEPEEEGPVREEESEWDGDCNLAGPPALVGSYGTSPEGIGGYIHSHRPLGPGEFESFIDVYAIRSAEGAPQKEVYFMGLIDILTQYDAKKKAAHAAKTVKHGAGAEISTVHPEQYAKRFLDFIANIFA

tau phosphorylation = assay: Isoflurane induced hypothermia tau phosphorylation in C57Bl/6 mice (western blot of cortex); type: in vivo, mouse
Excerpt: Under basal conditions, tau phosphorylation is tightly regulated by opposing kinase and phosphatase activities. In mice, isoflurane induced hypothermia causes a dramatic increase in tau phosphorylation through the temperature dependent inhibition of PP2A [40]. In the current experiment, we used isoflurane induced hypothermia in C57Bl/6 mice to increase tau phosphorylation in order to test the effects of TTBK1 inhibition. By using wild-type mice we ensured that both the levels of tau and tau kinases were at endogenous levels. […] Based on our in vitro potency assays and pharmacokinetic parameters, the highest dose used (75 mg/kg) was projected to achieve an IC80 of TTBK1 inhibition for the one hour of hypothermia treatment (S3 Fig). […] This further confirms that S422, a site implicated in the early stages of neurofibrillary tangle formation in disease, is likely solely phosphorylated by TTBK1 in the brain.
Fig 6 Acute TTBK1 inhibition reduces tau phosphorylation at disease relevant sites in vivo. […] Phosphorylation signal was normalized to the level of total tau in each sample. Data is represented as the mean +/- SEM. For each phospho-epitope, treatment significance was determined first by one-way ANOVA between all groups; For each dose group, Tukey’s comparison was used to determine significance versus the Vehicle treated control. (B) Correlation within each brain sample between the level of tau phosphorylation at S422 and the measured concentration of free drug (R^2 = 0.4254; p = 0.0569).
Samples were lysed in Pierce RIPA lysis and extraction buffer (Thermo Fisher Scientific, Waltham, MA) supplemented with 1% Halt protease and phosphatase inhibitor cocktail (Thermo Fisher Scientific, Waltham, MA) and centrifuged at 14000 x g for 20 min at 4°C to clear the lysate. Protein concentrations were determined using the Direct Detect Infrared Spectrometer (EMD Millipore Corp., Burlington, MA) and 10μg of each sample was denatured in 6X SDS sample buffer (Boston Bioproducts, Ashland, MA) for 7 minutes at 90°C. Proteins were loaded into a Criterion 7.5% tris-glycine gel (Bio-Rad, Hercules, CA) and separated by SDS-PAGE at 120V for 120 minutes. The gel was transferred to an IBlot2 nitrocellulose membrane (Invitrogen, Carlsbad, CA), blocked with TBST blocking buffer (Li-cor Biosciences, Lincoln, NE) for 1 hour, and washed three times with TBST. The membrane was probed with primary antibodies (1:1000 dilution) in antibody dilution buffer (1:1 TBST blocking buffer and 1X TBST) overnight at 4°C. The following antibodies were used for immunoblotting: TTBK1 (Cat# PA5-20686, Invitrogen, Carlsbad, CA), Tau-5 (Cat# ab80579, Abcam, Cambridge, UK), phospho-Tau S422 (Cat# ab79415, Abcam, Cambridge, UK), S198 (Cat# ab79540, Abcam, Cambridge, UK), AT8 S202/T205 (Cat# MN1020, Invitrogen, Carlsbad, CA), S214 (Cat# ab170892, Abcam, Cambridge, UK), AT180 T231 (Cat# MN1040, Invitrogen, Carlsbad, CA), S262 (Cat# ab131354, Abcam, Cambridge, UK), S356 (Cat# ab75603, Abcam, Cambridge, UK), S396 (Cat# ab109390, Abcam, Cambridge, UK), GAPDH (Cat# 5174S, Cell Signaling Technology, Danvers, MA), and β-actin (Cat# 926–42212, Li-cor Biosciences, Lincoln, NE). The blot was then washed in triplicate with TBST and incubated for 1 hour with secondary antibody (1:10,000 dilution of IRDye 800 anti-mouse IgG and IRDye 680 anti-rabbit IgG, Li-cor Biosciences, Lincoln, NE) in antibody dilution buffer. After a final triplicate wash with TBST, the blot was visualized using the Odyssey CLx imaging system (Li-cor Biosciences, Lincoln, NE).
Seven-week-old male C576Bl/6 mice were used for all hypothermia experiments (Charles River Laboratories, Wilmington, MA). Hypothermia was induced by exposure to vaporized isoflurane in an anesthetic induction chamber attached to a V-1 Tabletop Anesthesia System (VetEquip, Inc., Livermore, CA). The mice remained in the chamber for 60 minutes with a constant isoflurane concentration of 2%. […]

T1 sequence (Q66L42 whole entry): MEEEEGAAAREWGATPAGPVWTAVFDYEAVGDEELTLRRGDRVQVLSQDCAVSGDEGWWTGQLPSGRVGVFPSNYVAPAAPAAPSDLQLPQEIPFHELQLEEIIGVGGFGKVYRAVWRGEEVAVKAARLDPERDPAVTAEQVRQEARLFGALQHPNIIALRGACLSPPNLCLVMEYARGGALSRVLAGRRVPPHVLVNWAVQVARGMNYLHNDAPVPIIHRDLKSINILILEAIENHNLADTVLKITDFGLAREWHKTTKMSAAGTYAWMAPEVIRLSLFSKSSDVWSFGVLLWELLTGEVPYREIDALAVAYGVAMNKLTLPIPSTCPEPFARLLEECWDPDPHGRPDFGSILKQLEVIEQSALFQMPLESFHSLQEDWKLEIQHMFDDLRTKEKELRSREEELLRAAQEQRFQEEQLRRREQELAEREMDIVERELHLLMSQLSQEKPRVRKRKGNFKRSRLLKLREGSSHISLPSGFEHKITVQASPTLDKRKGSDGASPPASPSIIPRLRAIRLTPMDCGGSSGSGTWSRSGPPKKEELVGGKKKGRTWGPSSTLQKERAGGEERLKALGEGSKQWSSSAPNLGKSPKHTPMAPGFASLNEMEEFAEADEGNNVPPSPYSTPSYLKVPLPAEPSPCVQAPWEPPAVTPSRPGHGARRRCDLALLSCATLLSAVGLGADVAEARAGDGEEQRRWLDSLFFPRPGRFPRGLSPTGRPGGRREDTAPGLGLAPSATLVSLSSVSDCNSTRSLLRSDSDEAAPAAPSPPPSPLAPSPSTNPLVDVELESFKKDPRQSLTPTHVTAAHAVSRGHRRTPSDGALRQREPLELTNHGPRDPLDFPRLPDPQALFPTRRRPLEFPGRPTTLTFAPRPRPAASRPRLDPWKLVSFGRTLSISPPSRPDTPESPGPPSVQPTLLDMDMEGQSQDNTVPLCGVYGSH

`CCC(C)(O)C#Cc1cc2c(ccn2-c2ccnc(N)n2)cn1` (stereo not drawn) [BIIB-TTBK1i] was tested, and the “Percent Inhibition at 1μM” value (TTBK1, TTBK2) was 95.8%, the “Percent Inhibition at 1μM” value (CK1d, CK1e) was 55.5% and the “Percent Inhibition at 1μM” value (MLK2) was 60.1%. The “Percent Inhibition at 1μM” value (PIP4K2C; TLVIKEVSSEDIADMHSNLSNYHQYIVK, ADP probe) was 88.8%, the “Percent Inhibition at 1μM” value (PIP4K2C; TLVIKEVSSEDIADMHSNLSNYHQYIVK, ATP probe) was 76.5% and the “Percent Inhibition at 1μM” value (PIP4K2C; VKELPTLKDMDFLNK, ATP probe) was 67.9%. The “average reduction in tau phosphorylation at S422” value (tau phosphorylation; 25mg/kg I.P., one hour, p = 0.0213 vs Vehicle) was 60%, the “hypothermia induced tau phosphorylation at S422” value (tau phosphorylation; 50mg/kg I.P., one hour, p = 0.0005 vs Vehicle) was “completely restored to basal levels; also recorded: complete reversal” and the “tau phosphorylation at AT180 (Thr231)” value (tau phosphorylation; 75mg/kg I.P. p = 0.0002 vs Vehicle (50mg/kg p = 0.0005; 25mg/kg p = 0.0571)) was “significant decrease”. The “tau phosphorylation at S396” value (tau phosphorylation; 75mg/kg I.P. p = 0.0002 vs Vehicle (50mg/kg p = 0.011; 25mg/kg p = 0.8492)) was “significant decrease”, the “tau phosphorylation at AT8 (S202/T205)” value (tau phosphorylation; 75mg/kg I.P. p = 0.0066 vs Vehicle (50mg/kg p = 0.5391; 25mg/kg p>0.999)) was “significant decrease” and the “hypothermia induced tau phosphorylation at S422” value (tau phosphorylation; 75mg/kg I.P., one hour, p = 0.0007 vs Vehicle) was “completely restored to basal levels; also recorded: significant decrease”.

From article PMC7138307 (PLoS ONE, 2020)
